PMC6218659, “Structures of DPAGT1 Explain Glycosylation Disease Mechanisms and Advance TB Antibiotic Design” (Cell, 2018)
≈ marks a conversion by molar mass, not a printed value. Like-named read-outs stand apart in the source and are kept apart here.

Legend:
B. subtilis EC1524 = assay: Micro-broth dilution and drop plate antimicrobial susceptibility test; type: cell-based, Bacillus subtilis; conditions: for IC50 / MBC / MIC: Bacillus subtilis; for Relative Therapeutic Index (RTI), B. subtilis EC1524: minimal lethal dose / MIC, 800 μg mL-1 used for >400
Procedure: (§1) In a sterile 96-well plate, serial dilutions were made with the test substance to final volume of 50 μl. Inoculum was then prepared in Mueller-Hinton broth to 0.5 McFarland and diluted before adding 50 μl to the well to make ∼1x10^5 CFU/ml. The culture plate was incubated at 35 °C for 20-24 hrs. A positive growth control and sterility wells were also prepared along with the culture wells. Absorbance at OD600 was taken using BMG Labtech SPECTROstar Omega spectrophotometer. MIC is determined by the lowest concentration without growth. IC50 is determined from plotting a dose-response curve, see Data Analysis below. To determine the MBC, using a multi-channel pipette, 1 μl of culture broth was taken from the same 96-well microdilution growth plate and carefully inoculated on surface of MH agar plate. The plate is then incubated for additional 20 hrs. at 35 °C. The MBC value is the lowest concentration without observed growth on the agar.

HepG2 cells = assay: Cell proliferation assay (MTS); type: cell-based, human; conditions: for LD50 values, HepG2: MTS cell proliferation assay, 24 hrs, highest concentration 400 µg mL-1; for Minimal Lethal Dose, HepG2: serial 2-fold dilutions (Table S6)
Procedure: (§2) In sterile 96-well plate, each well was seeded with ∼1x10^5 cells. The cells are then grown confluent overnight in 100 μl DMEM with 10% FBS. The medium is replenished with DMEM with 2% FBS and added vehicle control or test substance the next day. For test substance in methanol, stock was added to 25 μl of DMEM with 2% FBS or PBS and placed in the laminar flow hood to let the methanol evaporate (about 1-3 hrs). Once the methanol has evaporated, DMEM with 2% FBS was added to final volume of 100 μl of desired test concentration. […] Cells are grown for additional 24 hrs. The cell viability was determined by using Promega CellTiter 96^© AQueous One Solution Cell Proliferation Assay (3-(4,5-dimethylthiazol-2-yl)-5-(3-carboxymethoxyphenyl)-2-(4-sulfophenyl)-2H-tetrazolium, inner salt; MTS) System following the manufacture protocol.

HEK293 cells = assay: Cell proliferation assay (MTS); type: cell-based, human; conditions: for LD50 values, HEK293: MTS cell proliferation assay, 24 hrs, highest concentration 400 µg mL-1; for Minimal Lethal Dose, HEK 293: serial 2-fold dilutions (Table S6)
Procedure: as §2

Raji cells = assay: Cell proliferation assay (MTS); type: cell-based, human; conditions: 24 hrs
Procedure: as §2

B. cereus ATCC11778 = assay: Micro-broth dilution and drop plate antimicrobial susceptibility test; type: cell-based, Bacillus cereus; conditions: for IC50 / MBC / MIC: Bacillus cereus; for Relative Therapeutic Index (RTI), B. cereus NRRL 11778: minimal lethal dose / MIC, 800 μg mL-1 used for >400
Procedure: as §1

E. coli ATCC25922 = assay: as above; type: cell-based; conditions: Escherichia coli
Procedure: as §1

P. aeruginosa ATCC27853 = assay: as above; type: cell-based; conditions: Pseudomonas aeruginosa
Procedure: as §1

S. aureus ATCC29219 = assay: as above; type: cell-based; conditions: Staphylococcus aureus
Procedure: as §1

Mtb H37Rv ATCC27294 = assay: Minimum inhibitory concentrations testing against Mtb; type: cell-based, Mycobacterium tuberculosis; conditions: for MIC: Mycobacterium tuberculosis; for Relative Therapeutic Index (RTI), Mtb H37RV a / Relative Therapeutic Index (RTI), Mtb H37RV b: minimal lethal dose / MIC, 800 μg mL-1 used for >400; for Relative Therapeutic Index (RTI), Mtb H37RV a: 7H9/ADC/Tw; for Relative Therapeutic Index (RTI), Mtb H37RV b: GAST/Fe
[1] = EC1524, read-out: Minimal Inhibitory Concentration, B. subtilis EC1524
[2] = ATCC 11778 / NRRL11778, read-out: Minimal Inhibitory Concentration, B. cereus NRRL 11778
[3] = 168 h, read-out: 1-week MIC in 7H9/ADC/Tw
[4] = 168 h, read-out: 1-week MIC in GAST/Fe
[5] = 168 h, read-out: Minimal Inhibitory Concentration, Mtb H37RV a
[6] = 168 h, read-out: Minimal Inhibitory Concentration, Mtb H37RV b

| Compound | IC50 (B. subtilis EC1524; EC1524) | MBC (B. subtilis EC1524; EC1524) | MIC (B. subtilis EC1524; EC1524) | MIC (B. subtilis EC1524; [1]) | Relative Therapeutic Index (RTI), B. subtilis EC1524 (B. subtilis EC1524) | LD50 values, HepG2 (HepG2 cells) | Minimal Lethal Dose, HepG2 (HepG2 cells) | LD50 values, HEK293 (HEK293 cells) | Minimal Lethal Dose, HEK 293 (HEK293 cells) | LD50 values, Raji (Raji cells) | IC50 (B. cereus ATCC11778; ATCC11778) | MBC (B. cereus ATCC11778; ATCC11778) | MIC (B. cereus ATCC11778; ATCC11778) | MIC (B. cereus ATCC11778; [2]) | Relative Therapeutic Index (RTI), B. cereus NRRL 11778 (B. cereus ATCC11778) | IC50 (E. coli ATCC25922) | MBC (E. coli ATCC25922) | MIC (E. coli ATCC25922) | IC50 (P. aeruginosa ATCC27853) | MBC (P. aeruginosa ATCC27853) | other results |
| --- | --- | --- | --- | --- | --- | --- | --- | --- | --- | --- | --- | --- | --- | --- | --- | --- | --- | --- | --- | --- | --- |
| CCCCCCC(=O)N[C@H]1[C@H](O[C@H]2O[C@H](CO)[C@@H](O)[C@H](O)[C@H]2NC(=O)CCCCCC)O[C@H](C[C@@H](O)[C@H]2O[C@@H](n3ccc(=O)[nH]c3=O)[C@H](O)[C@@H]2O)[C@H](O)[C@@H]1O [TUN-7,7, Di-N-heptanoyl tunicamycin] | 3.12 ± 1.04 mg/L (≈ 3.95 µM) | > 50 mg/L | 5.2 ± 1.8 mg/L (≈ 6.58 µM) | 6.25 mg/L (≈ 7.9 µM) | 128 | N/A (N/A = not available. No or low cytotoxicity observed at highest, saturating concentration tested (400 µg mL-1)) | > 400 µg/mL | N/A (N/A = not available. No or low cytotoxicity observed at highest, saturating concentration tested (400 µg mL-1)) | > 400 µg/mL | 431.10 ± 241.81 µg/mL | 13.3 mg/L (≈ 16.9 µM) | > 200 mg/L | 83 ± 29 mg/L (≈ 105 µM) | 100 mg/L (≈ 126 µM) | 8 | 131 mg/L (≈ 166 µM) | > 400 mg/L | 330 ± 120 mg/L (≈ 417 µM) | 62.4 mg/L (≈ 79 µM) | > 400 mg/L | MIC (P. aeruginosa ATCC27853): 83 ± 29 mg/L (≈ 105 µM); IC50 (S. aureus ATCC29219): 80.5 mg/L (≈ 102 µM); MBC (S. aureus ATCC29219): > 400 mg/L; MIC (S. aureus ATCC29219): 170 ± 60 mg/L (≈ 215 µM); MIC (Mtb H37Rv ATCC27294; [3]): 5 ± 3.5 mg/L; MIC (Mtb H37Rv ATCC27294; [4]): 1.6 ± 1.8 mg/L; MIC (Mtb H37Rv ATCC27294; [5]): 5 mg/L; MIC (Mtb H37Rv ATCC27294; [6]): 1.6 mg/L; Relative Therapeutic Index (RTI), Mtb H37RV a (Mtb H37Rv ATCC27294): 160; Relative Therapeutic Index (RTI), Mtb H37RV b (Mtb H37Rv ATCC27294): 500 |
| CC(=O)N[C@H]1[C@H](O[C@H]2O[C@H](CO)[C@@H](O)[C@H](O)[C@H]2NC(C)=O)O[C@H](C[C@@H](O)[C@H]2O[C@@H](n3ccc(=O)[nH]c3=O)[C@H](O)[C@@H]2O)[C@H](O)[C@@H]1O [TUN-Ac,Ac, α-D-N-acetylglucosamine-(1”-11')-N-acetyl tunicamyl uracil] |  |  |  |  |  | N/A (N/A = not available. No or low cytotoxicity observed at highest, saturating concentration tested (400 µg mL-1)) |  | N/A (N/A = not available. No or low cytotoxicity observed at highest, saturating concentration tested (400 µg mL-1)) |  | 212.30 ± 51.48 µg/mL |  |  |  |  |  |  |  |  |  |  | MIC (Mtb H37Rv ATCC27294; 168 h, Mtb H37Rv, minimal growth medium, read-out: 1-week MIC in GAST/Fe): 21.3 ± 1.8 mg/L; MIC (Mtb H37Rv ATCC27294; 168 h, Mtb H37Rv, rich 7H9-based growth medium, read-out: 1-week MIC in 7H9/ADC/Tw): ≥ 60 mg/L |
| NNC(=O)c1ccncc1 [Isoniazid, reference compound] |  |  |  |  |  |  |  |  |  |  |  |  |  |  |  |  |  |  |  |  | MIC (Mtb H37Rv ATCC27294; Mtb H37Rv, tested from 0.024 - 50 μM, read-out: MIC of positive control): 0.2 ± 0.1 µM |
| CC(C)=CCC[C@H](C)CC(=O)N[C@H]1[C@H](O[C@H]2O[C@H](CO)[C@@H](O)[C@H](O)[C@H]2NC(=O)C[C@@H](C)CCC=C(C)C)O[C@H](C[C@@H](O)[C@H]2O[C@@H](n3ccc(=O)[nH]c3=O)[C@H](O)[C@@H]2O)[C@H](O)[C@@H]1O [TUN-Cit,Cit, Di-N-citronoyl-tunicamycin] | 0.36 ± 0.12 mg/L (≈ 0.413 µM) | > 200 mg/L | 5.2 ± 1.8 mg/L (≈ 5.97 µM) | 6.25 mg/L (≈ 7.18 µM) | 128 | N/A (N/A = not available. No or low cytotoxicity observed at highest, saturating concentration tested (400 µg mL-1)) | > 400 µg/mL | N/A (N/A = not available. No or low cytotoxicity observed at highest, saturating concentration tested (400 µg mL-1)) | > 400 µg/mL | 177.75 ± 75.17 µg/mL | 6.29 ± 2.1 mg/L (≈ 7.22 µM) | > 200 mg/L | 83 ± 29 mg/L (≈ 95.3 µM) | 100 mg/L (≈ 115 µM) | 8 | 218 mg/L (≈ 250 µM) | 400 mg/L (≈ 459 µM) | > 400 mg/L | 70.3 mg/L (≈ 80.7 µM) | > 400 mg/L | MIC (P. aeruginosa ATCC27853): 170 ± 60 mg/L (≈ 195 µM); IC50 (S. aureus ATCC29219): 177 mg/L (≈ 203 µM); MBC (S. aureus ATCC29219): > 200 mg/L; MIC (S. aureus ATCC29219): > 400 mg/L; MIC (Mtb H37Rv ATCC27294; [3]): 16.3 ± 8.8 mg/L; MIC (Mtb H37Rv ATCC27294; [4]): 3.4 ± 3.1 mg/L; MIC (Mtb H37Rv ATCC27294; [5]): 16.3 mg/L; MIC (Mtb H37Rv ATCC27294; [6]): 3.4 mg/L; Relative Therapeutic Index (RTI), Mtb H37RV a (Mtb H37Rv ATCC27294): 49; Relative Therapeutic Index (RTI), Mtb H37RV b (Mtb H37Rv ATCC27294): 235 |
| N[C@@H]1CON=C1O [D-cycloserine, reference compound] |  |  |  |  |  |  |  |  |  |  |  |  |  |  |  |  |  |  |  |  | MIC (Mtb H37Rv ATCC27294; Mtb H37Rv, used for macromolecular incorporation assay, read-out: MIC concentrations for controls): 29 µM |
